Results as given in ChEMBL document CHEMBL1145799, “Spirocyclopropyl beta-lactams as mechanism-based inhibitors of serine beta-lactamases. Synthesis by rhodium-catalyzed cyclopropanation of 6-diazopenicillanate sulfone” (J Med Chem, 2003).
One block for each molecule: values may come before it.

Experiments:
Beta-lactamase = Beta-lactamase (Enterobacter cloacae, UniProt P05364); assay: In vitro inhibitory activity against Beta-lactamase AmpC of class C enzyme
Escherichia coli = assay: In vitro antibacterial activity against Escherichia coli GC6265; type: functional
Serratia marcescens = assay: In vitro antibacterial activity against Serratia marcescens GC4132 Beta-lactamase AmpC of class C enzyme; type: functional
[1] = biological target: Beta-lactamase (Enterobacter cloacae) (UniProt P05364); conditions: Pseudomonas aeruginosa
Description: In vitro antibacterial activity against Pseudomonas aeruginosa Beta-lactamase AmpC of class C enzyme

[2] = biological target: Beta-lactamase TEM (Escherichia coli) (UniProt P62593)
[3] = biological target: Beta-lactamase (Enterobacter cloacae) (UniProt P05364); conditions: Serratia marcescens

Chain of Beta-lactamase TEM (Escherichia coli) (P62593 whole entry): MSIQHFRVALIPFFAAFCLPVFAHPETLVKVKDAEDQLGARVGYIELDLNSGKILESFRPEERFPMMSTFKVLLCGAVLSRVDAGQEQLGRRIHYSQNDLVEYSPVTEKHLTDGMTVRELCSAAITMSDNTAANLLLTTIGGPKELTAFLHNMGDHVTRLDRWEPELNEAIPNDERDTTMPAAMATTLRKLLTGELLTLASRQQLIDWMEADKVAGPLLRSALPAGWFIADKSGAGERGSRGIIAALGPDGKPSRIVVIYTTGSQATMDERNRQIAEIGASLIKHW
Chain of Beta-lactamase (P05364 whole entry): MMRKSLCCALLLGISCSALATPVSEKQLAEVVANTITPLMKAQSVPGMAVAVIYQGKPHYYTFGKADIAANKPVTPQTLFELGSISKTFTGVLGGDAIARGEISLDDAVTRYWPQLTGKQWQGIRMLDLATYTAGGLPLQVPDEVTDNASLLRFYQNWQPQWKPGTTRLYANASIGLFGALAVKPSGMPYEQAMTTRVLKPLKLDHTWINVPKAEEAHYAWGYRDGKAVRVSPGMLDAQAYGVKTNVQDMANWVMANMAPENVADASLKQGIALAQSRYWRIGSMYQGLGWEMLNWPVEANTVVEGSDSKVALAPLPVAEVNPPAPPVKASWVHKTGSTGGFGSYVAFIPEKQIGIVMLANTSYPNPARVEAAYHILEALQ
Chain of Beta-lactamase (Enterobacter cloacae) (P05364 21-381 limits assumed): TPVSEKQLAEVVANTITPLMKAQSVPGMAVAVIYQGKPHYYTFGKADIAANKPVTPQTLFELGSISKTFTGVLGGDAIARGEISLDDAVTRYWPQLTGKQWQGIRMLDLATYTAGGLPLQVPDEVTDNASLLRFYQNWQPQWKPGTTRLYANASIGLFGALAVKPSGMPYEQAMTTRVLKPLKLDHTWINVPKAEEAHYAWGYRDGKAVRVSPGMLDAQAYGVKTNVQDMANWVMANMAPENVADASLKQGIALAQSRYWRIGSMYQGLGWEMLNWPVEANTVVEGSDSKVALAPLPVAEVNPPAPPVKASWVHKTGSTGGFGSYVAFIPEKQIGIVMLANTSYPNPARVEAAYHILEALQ

SMILES: CC1(C)[C@H](C(=O)O)N2C(=O)[C@@]3(C[C@H]3OC3CCCCC3)[C@H]2S1(=O)=O
IC50 (Beta-lactamase): > 3200 nM

SMILES: CC1(C)[C@H](C(=O)O)N2C(=O)[C@@]3(C[C@@H]3OC3CCCCC3)[C@H]2S1(=O)=O
IC50 (Beta-lactamase): 3200 nM

SMILES: CC(C)(C)[Si](C)(C)O[C@H]1C[C@]12C(=O)N1[C@@H](C(=O)O)C(C)(C)S(=O)(=O)[C@@H]12.CCN1CCN(C(=O)N[C@@H](C(=O)N[C@@H]2C(=O)N3[C@@H]2SC(C)(C)[C@@H]3C(=O)O)c2ccccc2)C(=O)C1=O [listing 1 of 2 here]
MIC [1]: 8 µg/mL
MIC [2]: 4 µg/mL
MIC [3]: 8 µg/mL

SMILES: CC(C)(C)[Si](C)(C)O[C@H]1C[C@]12C(=O)N1[C@@H](C(=O)O)C(C)(C)S(=O)(=O)[C@@H]12.CCN1CCN(C(=O)N[C@@H](C(=O)N[C@@H]2C(=O)N3[C@@H]2SC(C)(C)[C@@H]3C(=O)O)c2ccccc2)C(=O)C1=O [listing 2 of 2 here]
MIC (Escherichia coli): < 0.06 µg/mL

SMILES: CC(C)(C)[Si](C)(C)O[C@H]1C[C@]12C(=O)N1[C@@H](C(=O)O)C(C)(C)S(=O)(=O)[C@@H]12
IC50 (Beta-lactamase): 20 nM

SMILES: CC(C)(C)[Si](C)(C)O[C@@H]1CC12C(=O)N1[C@@H](C(=O)O)C(C)(C)S(=O)(=O)[C@@H]12 (single isomer, unassigned)
IC50 (Beta-lactamase): 400 nM

SMILES: CC1(C)[C@H](C(=O)O)N2C(=O)[C@]3(C[C@@H]3OC3CCCCC3)[C@H]2S1(=O)=O
IC50 (Beta-lactamase): 30 nM

SMILES: CC(C)(C)[Si](C)(C)O[C@H]1CC12C(=O)N1C(C(=O)O)C(C)(C)S(=O)(=O)[C@@H]12 (single isomer, unassigned)
IC50 (Beta-lactamase): 4100 nM

More lines, now with the values ahead:

MIC (Escherichia coli): 64 µg/mL
SMILES: CC1(C)[C@H](C(=O)O)N2C(=O)[C@]3(C[C@@H]3OC3CCCCC3)[C@H]2S1(=O)=O.CCN1CCN(C(=O)N[C@@H](C(=O)N[C@@H]2C(=O)N3[C@@H]2SC(C)(C)[C@@H]3C(=O)O)c2ccccc2)C(=O)C1=O [listing 1 of 2 here]

MIC (Serratia marcescens): 32 µg/mL
SMILES: CCN1CCN(C(=O)N[C@@H](C(=O)N[C@@H]2C(=O)N3[C@@H]2SC(C)(C)[C@@H]3C(=O)O)c2ccccc2)C(=O)C1=O.C[C@]1(Cn2ccnn2)[C@H](C(=O)O)N2C(=O)C[C@H]2S1(=O)=O [listing 1 of 2 here]

MIC [2]: 8 µg/mL
SMILES: CC1(C)[C@H](C(=O)O)N2C(=O)[C@]3(C[C@@H]3OC3CCCCC3)[C@H]2S1(=O)=O.CCN1CCN(C(=O)N[C@@H](C(=O)N[C@@H]2C(=O)N3[C@@H]2SC(C)(C)[C@@H]3C(=O)O)c2ccccc2)C(=O)C1=O [listing 2 of 2 here]

MIC (Escherichia coli): > 64 µg/mL
SMILES: CCN1CCN(C(=O)N[C@@H](C(=O)N[C@@H]2C(=O)N3[C@@H]2SC(C)(C)[C@@H]3C(=O)O)c2ccccc2)C(=O)C1=O [PIPERACILLIN]

MIC [2]: 4 µg/mL
SMILES: CCN1CCN(C(=O)N[C@@H](C(=O)N[C@@H]2C(=O)N3[C@@H]2SC(C)(C)[C@@H]3C(=O)O)c2ccccc2)C(=O)C1=O.C[C@]1(Cn2ccnn2)[C@H](C(=O)O)N2C(=O)C[C@H]2S1(=O)=O [listing 2 of 2 here]
